Results on seven compounds are retold here after patent US4518529A, “Antibiotics C-19393S2” (Takeda Chemical Industries, Ltd., priority 1979, dated 1985).

≈ marks a conversion by molar mass, not a printed value. Entries after “also recorded” stand apart in the source; their conditions may differ. Counter-ions that a name gives are not always drawn. Like-named read-outs stand apart in the source and are kept apart here.

The test system of data set [1] is Proteus mirabilis IFO 3845. Put plainly: Antimicrobial spectrum, MIC on bouillon agar, P. mirabilis. In kind it is cell-based. To be noted: IFO3845, read-out: Minimum Inhibitory Concentration. The text has this:
(§1) The biological properties of C-19393S2 are described below. The antibiotic spectrum of C-19393S2 sodium salt against various microorganisms are shown below in Table 4.

A further data set relates to Escherichia coli NIHJ. The data set can be described thus: Antimicrobial spectrum, MIC on bouillon agar, E. coli NIHJ. In kind it is cell-based. Conditions: read-out: Minimum Inhibitory Concentration.
From the text: as §1

In data set [2] the test system is Alcaligenes faecalis IFO 13111. The data set can be described thus: Antimicrobial spectrum, MIC on bouillon agar, A. faecalis. In kind it is cell-based. Conditions: IFO13111, read-out: Minimum Inhibitory Concentration.
From the text: as §1

The next data set is described as follows: Solubility. The class given is physicochemical.
Data set [3] relates to Serratia marcescens IFO 12648. The data set can be described thus: Antimicrobial spectrum, MIC on bouillon agar, S. marcescens. To be noted: IFO12648, read-out: Minimum Inhibitory Concentration. The class given is cell-based.
From the text: as §1

The test system of data set [4] is Klebsiella pneumoniae IFO 3318. Put plainly: Antimicrobial spectrum, MIC on bouillon agar, K. pneumoniae. Conditions: IFO3318, read-out: Minimum Inhibitory Concentration. The class given is cell-based.
From the text: as §1

Data set [5] relates to Bacillus subtilis IFO 3513. Put plainly: Antimicrobial spectrum, MIC on bouillon agar, B. subtilis. In kind it is cell-based. To be noted: IFO3513, read-out: Minimum Inhibitory Concentration.
From the text: as §1

Another data set relates to Sarcina lutea IFO 3232. Put plainly: Antimicrobial spectrum, MIC on bouillon agar, S. lutea. The class given is cell-based. To be noted: Micrococcus luteus, IFO3232, read-out: Minimum Inhibitory Concentration.
From the text: as §1

For another data set, the system named is Bacillus cereus IFO 3460. Put plainly: Antimicrobial spectrum, MIC on bouillon agar, B. cereus. To be noted: IFO3460, read-out: Minimum Inhibitory Concentration. The class given is cell-based.
From the text: as §1

Data set [6] concerns Comamonas terrigena IFO 13299. Put plainly: Antimicrobial spectrum, MIC on bouillon agar, C. terrigena. In kind it is cell-based. Conditions: IFO13299, read-out: Minimum Inhibitory Concentration.
From the text: as §1

Data set [7] has as its system Salmonella typhimurium IFO 12529. Put plainly: Antimicrobial spectrum, MIC on bouillon agar, S. typhimurium. The class given is cell-based. To be noted: Salmonella enterica, read-out: Minimum Inhibitory Concentration.
From the text: as §1

In data set [8] the test system is Staphylococcus aureus 209P. The data set can be described thus: Antimicrobial spectrum, MIC on bouillon agar, S. aureus. The class given is cell-based. To be noted: read-out: Minimum Inhibitory Concentration.
From the text: as §1

Data set [9] has as its system Proteus vulgaris IFO 3045. The data set can be described thus: Antimicrobial spectrum, MIC on bouillon agar, P. vulgaris. To be noted: IFO3045, read-out: Minimum Inhibitory Concentration. The class given is cell-based.
From the text: as §1

For data set [10], the system named is Pseudomonas aeruginosa IFO 3080. Put plainly: Antimicrobial spectrum, MIC on bouillon agar, P. aeruginosa. In kind it is cell-based. Conditions: IFO3080, read-out: Minimum Inhibitory Concentration.
From the text: as §1

Data set [11] deals with gram-positive and gram-negative bacteria. Put plainly: Antimicrobial activity (in words). In kind it is cell-based.
The next data set can be described thus: Stability. In kind it is physicochemical.
Data set [12] relates to various bacteria which exhibit resistance to penicillin derivatives and/or cephalosporin derivatives. The data set can be described thus: Sensitivity of resistant bacteria to penicillin and/or cephalosporin derivatives. In kind it is cell-based. To be noted: to penicillin derivatives and/or cephalosporin derivatives (ampicillin, cefotiam).
The subject of the next data set is betalactamase. Put plainly: Betalactamase inhibiting activity. The class given is biochemical.
The conditions of data set [13]: Umezawa et al., The Journal of Antibiotics, Vol. 26, pages 51-54, 1973; cited from earlier work.
Data set [14] deals with Klebsiella pneumoniae TN 1725. The data set can be described thus: Increasing effect on antimicrobial activity of ampicillin and cefotiam by C-19393S2, K. pneumoniae TN 1725. The class given is cell-based. Conditions: read-out: Minimum Inhibitory Concentration. The text has this: (§2) *Clinically isolated strains having the ability to produce betalactamase
(§3) Medium: Heart Infusion Agar (Eiken Chemical Co., Japan)

For another data set, the system named is Proteus vulgaris TN 224. The data set can be described thus: Increasing effect on antimicrobial activity of ampicillin and cefotiam by C-19393S2, P. vulgaris TN 224. The class given is cell-based. Conditions: read-out: Minimum Inhibitory Concentration.
From the text: as §2, §3

The subject of a further data set is Escherichia coli TN 659. The data set can be described thus: Increasing effect on antimicrobial activity of ampicillin and cefotiam by C-19393S2, E. coli TN 659. In kind it is cell-based. Conditions: read-out: Minimum Inhibitory Concentration.
From the text: as §2, §3

[15] abbreviates: aqueous solution in a neutral pH region.
The mark [16] stands for this setting: comparison with MM-4550 (MC 696-SY2-A).
Where [17] appears, read: TN1725, Klebsiella pneumoniae TN 1725, C-19393S2 0, Heart Infusion Agar.
[18] abbreviates: TN1725, Klebsiella pneumoniae TN 1725, with C-19393S2 1 μg/ml, Heart Infusion Agar.
Setting [19] is: TN1725, Klebsiella pneumoniae TN 1725, with C-19393S2 5 μg/ml, Heart Infusion Agar.
The mark [20] stands for this setting: TN224, Proteus vulgaris TN 224, C-19393S2 0, Heart Infusion Agar.
The mark [21] stands for this setting: TN224, Proteus vulgaris TN 224, with C-19393S2 1 μg/ml, Heart Infusion Agar.
Where [22] appears, read: TN224, Proteus vulgaris TN 224, with C-19393S2 5 μg/ml, Heart Infusion Agar.
[23] abbreviates: TN659, Escherichia coli TN 659, C-19393S2 0, Heart Infusion Agar.
Setting [24] is: TN659, Escherichia coli TN 659, with C-19393S2 1 μg/ml, Heart Infusion Agar.
Setting [25] is: TN659, Escherichia coli TN 659, with C-19393S2 5 μg/ml, Heart Infusion Agar.

As to `CC(=O)N/C=C/[S+]([O-])C1=C(C(=O)O)N2C(=O)C(C(C)(C)O)C2C1` (stereo not shown) [C-19393H2 sodium salt], the MIC in data set [1] turned out to be 5 µg/mL; in the data set on Escherichia coli NIHJ, 0.08 µg/mL; in data set [2], 5 µg/mL; in [3], 0.31 µg/mL; in [4], 0.31 µg/mL; in data set [5], 0.31 µg/mL. Further, the MIC with Sarcina lutea IFO 3232 is 0.31 µg/mL; with Bacillus cereus IFO 3460, 10 µg/mL; in data set [6], 0.16 µg/mL; in data set [7], 0.31 µg/mL; in data set [8] it was 0.63 µg/mL; in [9], 5 µg/mL. Further, in [10], the MIC came to 10 µg/mL. The Solubility result was “sparingly soluble” in the data set “Solubility” (acetone); “sparingly soluble” in the data set “Solubility” (butanol); “Insoluble” in “Solubility” (chloroform); “sparingly soluble” in the data set “Solubility” (ethanol); “Insoluble” in the data set “Solubility” (ethyl acetate); “soluble” in the data set “Solubility” (methanol). For the same compound, the Solubility result in “Solubility” (water) was “soluble”.

As for `CC(=O)N/C=C/[S+]([O-])C1=C(C(=O)O)N2C(=O)C(C(C)(C)O)C2C1` (stereo not shown) [Antibiotic C-19393H2], in data set [11], the antimicrobial activity result is “exhibits antibacterial activity against gram-positive and gram-negative bacteria; also recorded: has antimicrobial activity against gram-positive and gram-negative bacteria”. Also, the Solubility result in “Solubility” (water, listed as H2) is “water-soluble”. The Stability entry in “Stability” (setting [15]) and in “Stability” (setting [16]) was “stable” throughout.

Turning to `CC(=O)N/C=C/[S+]([O-])C1=C(C(=O)O)N2C(=O)C(C(C)(C)OS(=O)(=O)O)C2C1` (stereo not shown) [Antibiotic C-19393S2], the antimicrobial activity entry in data set [11] was “exhibits an antimicrobial activity against gram-positive and gram-negative bacteria”; in [11] (listed as Antibiotic C-19393S2) it was “active against gram-positive and gram-negative bacteria”. In the data set “Solubility” (water), the Solubility entry is listed as “water-soluble”. The “increase of sensitivity of resistant bacteria” value in data set [12] is listed as “increases markedly the sensitivity; also recorded: markedly increases the sensitivity”. The Stability entry in “Stability” (setting [15]) and in “Stability” (setting [16]) was “stable” each time. Moreover, in the data set on betalactamase, the betalactamase inhibiting activity entry is reported as “strong betalactamase inhibiting activity; also recorded: exhibits a beta-lactamase inhibiting activity”.

As to `CC(=O)N/C=C/[S+]([O-])C1=C(C(=O)O)N2C(=O)C(C(C)OS(=O)(=O)O)C2C1` (stereo not shown) [MC 696-SY2-A], the Stability entry in [13] is recorded as “very unstable”.

With `CN(C)CCn1nnnc1SCC1=C(C(=O)O)N2C(=O)[C@@H](NC(=O)Cc3csc(N)n3)[C@H]2SC1` [Cefotiam], the MIC amounted to 200 µg/mL (≈ 380 µM) in [14] (setting [17]); 0.2 µg/mL (≈ 0.38 µM) in [14] (setting [18]); 0.02 µg/mL (≈ 0.038 µM) in data set [14] (setting [19]); 200 µg/mL (≈ 380 µM) with Proteus vulgaris TN 224 (setting [20]); 0.2 µg/mL (≈ 0.38 µM) in the data set with Proteus vulgaris TN 224 (setting [21]); 0.2 µg/mL (≈ 0.38 µM) in the data set on Proteus vulgaris TN 224 (setting [22]). Further, the MIC in the data set on Escherichia coli TN 659 (setting [23]) turned out to be 0.2 µg/mL (≈ 0.38 µM); in the data set on Escherichia coli TN 659 (setting [24]), 0.1 µg/mL (≈ 0.19 µM); in the data set with Escherichia coli TN 659 (setting [25]) it was 0.006 µg/mL (≈ 0.0114 µM).

As for `CC1(C)S[C@@H]2[C@H](NC(=O)[C@H](N)c3ccccc3)C(=O)N2[C@H]1C(=O)O` [Ampicillin], the MIC in data set [14] (setting [17]) stood at 800 µg/mL (≈ 2290 µM); in data set [14] (setting [18]), 50 µg/mL (≈ 143 µM); in [14] (setting [19]) it was 0.78 µg/mL (≈ 2.23 µM); with Proteus vulgaris TN 224 (setting [20]) it was 400 µg/mL (≈ 1140 µM); in the data set with Proteus vulgaris TN 224 (setting [21]) it was 1.56 µg/mL (≈ 4.46 µM); in the data set on Proteus vulgaris TN 224 (setting [22]) it was 1.56 µg/mL (≈ 4.46 µM). Also, the MIC was over 800 µg/mL in the data set with Escherichia coli TN 659 (setting [23]), 3.13 µg/mL (≈ 8.96 µM) in the data set on Escherichia coli TN 659 (setting [24]) and at most 0.003 µg/mL in the data set with Escherichia coli TN 659 (setting [25]).

In the case of `CC(=O)N/C=C/[S+]([O-])C1=C(C(=O)O)N2C(=O)C(C(C)(C)OS(=O)(=O)O)C2C1` (stereo not shown) [C-19393S2 disodium salt], the MIC in data set [1] is 50 µg/mL; in the data set on Escherichia coli NIHJ, 12.5 to 25 µg/mL; in data set [2], 50 µg/mL; in data set [3], 25 µg/mL; in data set [4], 12.5 µg/mL; in data set [5], 12.5 µg/mL. In addition, the MIC is 12.5 µg/mL with Sarcina lutea IFO 3232; over 100 µg/mL in the data set with Bacillus cereus IFO 3460; 6.25 µg/mL in data set [6]; 12.5 µg/mL in data set [7]; 12.5 µg/mL in data set [8]; 100 µg/mL in data set [9]. Moreover, the MIC in data set [10] was over 100 µg/mL. Besides, the Solubility result is on record as “soluble” in the data set “Solubility” (acetic acid); “Insoluble” in the data set “Solubility” (acetone); “sparingly soluble” in the data set “Solubility” (butanol); “Insoluble” in “Solubility” (chloroform); “soluble” in the data set “Solubility” (dimethyl sulfoxide); “sparingly soluble” in the data set “Solubility” (ethanol). Further, the Solubility result in “Solubility” (ethyl acetate) is “Insoluble”; in the data set “Solubility” (methanol), “soluble”; in “Solubility” (pyridine), “sparingly soluble”; in the data set “Solubility” (water) it was “readily soluble”.
